For 34 molecules, IC50 results are on record in patent publication US8765748B2, “Indazolyl, benzimidazolyl, benzotriazolyl substituted indolinone derivatives as kinase inhibitors useful in the treatment of cancer” (University Health Network, priority 2007, dated 2014).

Structures can show the parent of a compound that is named as a salt. Bounds are passed on as bounds.

The target in one assay is T1, human PLK4 (Homo sapiens, UniProt O00444).
T1 construct: amino terminal GST fusion of residues 1-391 of human PLK4; made in house; host or cells: E. coli
T1 sequence (O00444 1-391): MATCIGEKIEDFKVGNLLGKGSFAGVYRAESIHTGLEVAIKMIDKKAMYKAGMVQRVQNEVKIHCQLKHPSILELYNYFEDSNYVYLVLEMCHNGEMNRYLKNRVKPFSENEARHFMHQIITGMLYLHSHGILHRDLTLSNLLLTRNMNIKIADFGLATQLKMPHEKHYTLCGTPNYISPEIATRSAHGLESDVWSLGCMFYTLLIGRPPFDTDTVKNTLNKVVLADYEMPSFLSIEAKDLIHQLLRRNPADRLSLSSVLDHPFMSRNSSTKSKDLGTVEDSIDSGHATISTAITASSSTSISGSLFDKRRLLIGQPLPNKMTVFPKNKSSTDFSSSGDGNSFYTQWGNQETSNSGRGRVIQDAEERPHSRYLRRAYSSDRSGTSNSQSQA
The assay is described as follows: PLK4 Inhibition Assay (indirect ELISA). Type of assay: biochemical. To be noted: 15 μM ATP, 4 nM GST-PLK4; read-out: PLK4 IC50 Ranges. The procedure: The protein was purified from clarified cell extracts after induction at 15° C. overnight using glutathione sepharose, gel permeation chromatography, and ion exchange (Resource Q). The resulting protein was dephosphorylated with lambda phosphatase (NEB cat #P0753), and resolved from the phosphatase using gluthione sepharose. The dephosphorylated GST-PLK4 was stored in aliquots at −80° C. until use. PLK4 activity was measured using an indirect ELISA detection system. […] Compounds were pre-incubated in the presence of enzyme for 15 minutes prior to addition of ATP and the activity remaining quantified using the above described activity assay. […] The IC50 value was determined using a non-linear 4 point logistic curve fit (XLfit4, IDBS) with the formula; (A+(B/(1+((x/C)^D)))), where A=background value, B=range, C=inflection point, D=curve fit parameter.

Another assay addresses T2, Aurora B (Homo sapiens, UniProt Q96GD4).
T2 construct: purchased Invitrogen PV3970
In words: Aurora B Inhibition Assay (Z-Lyte). To be noted: 128 μM ATP, 28 nM Aurora B; read-out: Aurora B IC50 Ranges. Type of assay: biochemical. The procedure: Aurora B inhibition was determined using the Z-Lyte assay kit from Invitrogen. The assay was performed using the recommended manufacturer's instructions with 128 μM ATP and 28 nM Aurora B (Invitrogen cat #PV3970). The % inhibition values were determined according to the manufacturer's directions and IC50 values were obtained using a non-linear 4 point logistic curve fit (XLfit4, IDBS)

T2 sequence (Q96GD4 whole entry): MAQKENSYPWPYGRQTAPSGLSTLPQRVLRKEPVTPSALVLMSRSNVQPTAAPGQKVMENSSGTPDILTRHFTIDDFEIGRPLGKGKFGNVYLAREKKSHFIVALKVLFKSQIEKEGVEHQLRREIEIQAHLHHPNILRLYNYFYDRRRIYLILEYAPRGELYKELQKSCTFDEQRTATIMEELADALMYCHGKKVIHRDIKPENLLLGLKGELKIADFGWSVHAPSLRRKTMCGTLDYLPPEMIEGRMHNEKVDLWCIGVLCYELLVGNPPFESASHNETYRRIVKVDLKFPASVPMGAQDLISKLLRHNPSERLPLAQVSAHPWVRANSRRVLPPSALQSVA

A word on the IC50: it is the point on the concentration scale where inhibition reaches its midpoint. For `CN(C)CCN(C)S(=O)(=O)c1ccc2c(c1)C(=Cc1ccc3c(/C=C/c4ccncc4)n[nH]c3c1)C(=O)N2` (mixture of isomers) [Example A129, (E and Z)—N-(2-(dimethylamino)ethyl)-N-methyl-2-oxo-3-((3-((E)-2-(pyridin-4-yl)vinyl)-1H-indazol-6-yl)methylene)indoline-5-sulfonamide], the IC50 at human PLK4 and on Aurora B was below 5 µM in each case.

Consider `O=C1Nc2ccccc2/C1=C\c1ccc2c(C3CC3)n[nH]c2c1` [Example A102, (E)-3-((3-cyclopropyl-1H-indazol-6-yl)methylene)indolin-2-one], for which the IC50 at human PLK4 is below 5 µM. The same measure, in the same setting: with `O=CNc1cccc2c1NC(=O)C2=Cc1ccc2cn[nH]c2c1` (mixture of isomers) [Example A50, (E and Z)—N-(3-((1H-indazol-6-yl)methylene)-2-oxoindolin-7-yl)formamide] the figure was below 5 µM; with `O=C1Nc2ccccc2/C1=C\c1ccc2c(-c3nccs3)n[nH]c2c1` [Example A92, (E)-3-((3-(thiazol-2-yl)-1H-indazol-6-yl)methylene)indolin-2-one], below 5 µM; with `O=C1Nc2ccccc2/C1=C/c1cc(Br)c2cn[nH]c2c1` [Example A53b, (Z)-3-((4-bromo-1H-indazol-6-yl)methylene)indolin-2-one], below 5 µM. Still for that read-out and setting: with `O=C1Nc2ccccc2/C1=C\c1ccc2c(/C=C/c3ccc(C(F)(F)F)cc3)n[nH]c2c1` [Example A65, (E & Z)-3-((3-((E)-4-(trifluoromethyl)styryl)-1H-indazol-6-yl)-methylene)-indolin-2-one] the figure was below 5 µM.

In the case of `CN1CCN(c2ccc(-c3n[nH]c4ccc(C=C5C(=O)Nc6ccccc65)cc34)cn2)CC1` (mixture of isomers) [Example A155, (E and Z)-3-((3-(6-(4-methylpiperazin-1-yl)pyridin-3-yl)-1H-indazol-5-yl)methylene)indolin-2-one], the IC50 on human PLK4 was below 5 µM. For `O=C1Nc2cc(Br)ccc2C1=Nc1ccc2cn[nH]c2c1` [Example A76, (E and Z)-3-(1H-indazol-6-ylimino)-6-bromoindolin-2-one], the IC50 on human PLK4 was 5 to 50 µM.

Take `O=C1Nc2ccccc2/C1=C\c1cc(Cl)c2cn[nH]c2c1` [Example A52, (E)-3-((4-chloro-1H-indazol-6-yl)methylene)indolin-2-one]: the IC50 at human PLK4 was below 5 µM. Still for that read-out and setting: with `O=C1Nc2ccccc2C1=Nc1ccc2cn[nH]c2c1` [Example A73, (E and Z)-3-(1H-indazol-6-ylimino)indolin-2-one] the figure was below 5 µM. As for `COc1ccc2c(c1)/C(=C\c1ccc3c(/C=C/c4ccc(CN(C)C)cc4)n[nH]c3c1)C(=O)N2` [Example A136a, (E)-3-((3-(4-((dimethylamino)methyl)styryl)-1H-indazol-6-yl)-methylene)-5-methoxyindolin-2-one 2,2,2-trifluoroacetate], the IC50 on Aurora B was below 5 µM.

Take `O=C1Nc2ccccc2C1=Cc1ccc2c(/C=C/c3ccc(CN4CCOCC4)cc3)n[nH]c2c1` (mixture of isomers) [Example A154, (E and Z)-3-((3-(4-(morpholinomethyl)styryl)-1H-indazol-6-yl)-methylene)indolin-2-one]: at human PLK4, the IC50 was below 5 µM. Regarding `O=C1Nc2ccc(F)cc2C1=Nc1ccc2[nH]ncc2c1` [Example A79, (E and Z)-3-(1H-indazol-5-ylimino)-5-fluoroindolin-2-one], at human PLK4, the half-maximal inhibitory concentration (IC50) is 5 to 50 µM. The same measure, in the same setting: with `O=C1Nc2ccccc2C1=Cc1ccc2c(-c3cnc4ccccc4c3)n[nH]c2c1` (mixture of isomers) [Example A95, (E and Z)-3-((3-(quinolin-3-yl)-1H-indazol-6-yl)methylene)indolin-2-one] the figure was below 5 µM; with `O=C1Nc2ccccc2C1=Cc1ccc2c(-c3cc4ccccc4[nH]3)n[nH]c2c1` (mixture of isomers) [Example A90, (E and Z)-3-((3-(1H-indol-2-yl)-1H-indazol-6-yl)methylene)indolin-2-one], below 5 µM.

For `O=C1Nc2c(Br)cccc2/C1=C\c1ccc2cn[nH]c2c1` [Example A44, (E)-3-((1H-indazol-6-yl)methylene)-7-bromoindolin-2-one], the IC50 on human PLK4 was below 5 µM. The same measure, in the same setting: with `O=C1Nc2ccc(C(F)(F)F)cc2C1=Cc1ccc2cn[nH]c2c1` (mixture of isomers) [Example A82, (E and Z)-3-((1H-indazol-6-yl)methylene)-5-(trifluoromethyl)-indolin-2-one] the figure was below 5 µM; with `CN1CCN(C(=O)/C=C/c2n[nH]c3cc(C=C4C(=O)Nc5ccccc54)ccc23)CC1` (mixture of isomers) [Example A66, (E and Z)-3-((3-((E)-3-(4-methylpiperazin-1-yl)-3-oxoprop-1-enyl)-1H-indazol-6-yl)methylene)indolin-2-one], below 5 µM. `Cc1ccc2c(c1)C(=Nc1ccc3[nH]ncc3c1)C(=O)N2` [Example A78, (E and Z)-3-(1H-indazol-5-ylimino)-5-methylindolin-2-one]: on human PLK4, the IC50 was below 5 µM. The same measure, in the same setting: with `O=C1Nc2cccc(Br)c2/C1=C/c1ccc2cn[nH]c2c1` [Example A133, (Z)-3-((1H-indazol-6-yl)methylene)-4-bromoindolin-2-one] the figure was below 5 µM; with `O=C1Nc2ccccc2/C1=C\c1ccc2c(I)n[nH]c2c1` [Example A39, (E)-3-((3-iodo-1H-indazol-6-yl)methylene)indolin-2-one], below 5 µM; with `COc1cc2c(cc1OC)/C(=C\c1ccc3cn[nH]c3c1)C(=O)N2` [Example A135, (E)-3-((1H-indazol-6-yl)methylene)-5,6-dimethoxyindolin-2-one], below 5 µM.

As to `O=C1Nc2ncccc2/C1=C\c1ccc2[nH]ncc2c1` [Example A68, (E)-3-((1H-indazol-5-yl)methylene)-1H-pyrrolo[2,3-b]pyridin-2(3H)-one], the half-inhibitory concentration (IC50) at human PLK4 was below 5 µM.

As for `COC(=O)c1cccc2c1NC(=O)C2=Cc1ccc2cn[nH]c2c1` (mixture of isomers) [Example A46, (E and Z)-methyl 3-((1H-indazol-6-yl)methylene)-2-oxoindoline-7-carboxylate], the IC50 at human PLK4 was below 5 µM. In the case of `O=C1Nc2ccccc2C1=Cc1ccc2[nH]nc(/C=C/c3ccncc3)c2c1` (mixture of isomers) [Example A131, (E and Z)-3-((3-((E)-2-(pyridin-4-yl)vinyl)-1H-indazol-5-yl)-methylene)indolin-2-one hydrochloride], at human PLK4, the IC50 is below 5 µM.

Take `O=C1Nc2ccccc2C1=Nc1ccc2[nH]ncc2c1` [Example A77, (E and Z)-3-(1H-indazol-5-ylimino)indolin-2-one]: the IC50 at human PLK4 lay within 5 to 50 µM.

As to `O=C1Nc2ccc(F)cc2C1=Nc1ccc2cn[nH]c2c1` [Example A75, (E and Z)-3-(1H-indazol-6-ylimino)-5-fluoroindolin-2-one], the IC50 on human PLK4 was 5 to 50 µM. For `Cn1ccnc1/C=C/c1n[nH]c2cc(C=C3C(=O)Nc4ccccc43)ccc12` (mixture of isomers) [Example A105, (E and Z)-3-((3-((E)-2-(1-methyl-1H-imidazol-2-yl)vinyl)-1H-indazol-6-yl)methylene)indolin-2-one], the IC50 at human PLK4 was below 5 µM. On the same count and under the same terms, the same measure for `O=C1Nc2ccccc2C1=Cc1ccc2c(-c3ccn[nH]3)n[nH]c2c1` (mixture of isomers) [Example A98, (E and Z)-3-((3-(1H-pyrazol-5-yl)-1H-indazol-6-yl)methylene)-indolin-2-one]: below 5 µM.

For the molecule `Cc1ccc2c(c1)C(=Nc1ccc3cn[nH]c3c1)C(=O)N2` [Example A74, (E and Z)-3-(1H-indazol-6-ylimino)-5-methylindolin-2-one], the concentration for half-maximal inhibition (IC50) on human PLK4 was below 5 µM. For the molecule `O=C1Nc2cc(-c3cccnc3)ccc2C1=Cc1ccc2cn[nH]c2c1` (mixture of isomers) [Example A28, (E and Z)-3-(3-((1H-indazol-6-yl)methylene)-2-oxoindolin-6-yl)pyridinium 2,2,2-trifluoroacetate], at human PLK4, the IC50 lay within 5 to 50 µM. Same read-out and setting: the same measure for `O=C1Nc2ccc(Cl)nc2/C1=C\c1ccc2cn[nH]c2c1` [Example A134, (E)-3-((1H-indazol-6-yl)methylene)-5-chloro-1H-pyrrolo[3,2-b]pyridin-2(3H)-one]: below 5 µM. Turning to `CC(C)NC(=O)Nc1cccc2c1NC(=O)/C2=C/c1ccc2cn[nH]c2c1` [Example A48, (E)-1-(3-((1H-indazol-6-yl)methylene)-2-oxoindolin-7-yl)-3-isopropyl-urea], the IC50 on human PLK4 was below 5 µM. On the same count and under the same terms, with `Nc1n[nH]c2ccc(C=C3C(=O)Nc4ccccc43)cc12` (mixture of isomers) [Example A40, (E & Z)-3-((3-amino-1H-indazol-5-yl)methylene)indolin-2-one] the figure was 5 to 50 µM.
